System: 521955-158-R6-J3-PDC complex spheroid growth, % test/control
Assay: Anticancer human tumor 521955-158-R6-J3-PDC patient-derived pancreatic carcinoma cell line growth inhibition [Asc]
Conditions: for IC50: curve of first compound; for viability, T/C: stronger effect = lower value
How it was run: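 Spheroid model: tumor line + HUVEC + hMSC. Single agents and combinations; top conc. at/near clinical Cmax (10 microM if undetermined), half-log dilutions. DMSO stocks at 800-fold test concentration.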
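Further: spheroids exposed to compounds for 7 days.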
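Wherever viability, T/C is given: 100% = DMSO vehicle control wells.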

Cc1nc(N2CCC3(CC2)COC(C)C3N)c(CO)nc1Sc1ccnc(N)c1Cl (configuration not stated) + Cc1c(S(C)(=O)=O)c(-c2cc(F)cc(N3CCN(c4ccc(NS(=O)(=O)c5ccc(NC(CCN6CCC(C(=O)OCCCP(=O)(O)O)CC6)CSc6ccccc6)c(S(=O)(=O)C(F)(F)F)c5)cc4)CC3)c2)c(-c2ccc(Cl)cc2)n1C(C)C
IC50 (second compound 0.0316 µM): > 3000 nM
IC50 (second compound 0.1 µM): 177 nM
IC50 (second compound 0.316 µM): < 9.49 nM
IC50 (second compound 1 µM): < 9.49 nM
IC50 (second compound 3.16 µM): < 9.49 nM
IC50 (second compound 10 µM): < 9.49 nM
viability, T/C (second compound 0.0316 µM, first compound 0.00949 µM): 81.8%
viability, T/C (second compound 0.0316 µM, first compound 0.03 µM): 75%
viability, T/C (second compound 0.0316 µM, first compound 0.0949 µM): 57.6%
viability, T/C (second compound 0.0316 µM, first compound 0.3 µM): 61.2%
viability, T/C (second compound 0.0316 µM, first compound 0.949 µM): 58.6%
viability, T/C (second compound 0.0316 µM, first compound 3 µM): 51.7%
viability, T/C (second compound 0.1 µM, first compound 0.00949 µM): 77.4%
viability, T/C (second compound 0.1 µM, first compound 0.03 µM): 63.2%
viability, T/C (second compound 0.1 µM, first compound 0.0949 µM): 49.1%
viability, T/C (second compound 0.1 µM, first compound 0.3 µM): 54.4%
viability, T/C (second compound 0.1 µM, first compound 0.949 µM): 39.6%
viability, T/C (second compound 0.1 µM, first compound 3 µM): 39.9%
viability, T/C (second compound 0.316 µM, first compound 0.00949 µM): 42.6%
viability, T/C (second compound 0.316 µM, first compound 0.03 µM): 38.7%
viability, T/C (second compound 0.316 µM, first compound 0.0949 µM): 41.9%
viability, T/C (second compound 0.316 µM, first compound 0.3 µM): 29%
viability, T/C (second compound 0.316 µM, first compound 0.949 µM): 31.1%
viability, T/C (second compound 0.316 µM, first compound 3 µM): 22.3%
viability, T/C (second compound 1 µM, first compound 0.00949 µM): 26.3%
viability, T/C (second compound 1 µM, first compound 0.03 µM): 24.8%
viability, T/C (second compound 1 µM, first compound 0.0949 µM): 22.8%
viability, T/C (second compound 1 µM, first compound 0.3 µM): 26%
viability, T/C (second compound 1 µM, first compound 0.949 µM): 15.5%
viability, T/C (second compound 1 µM, first compound 3 µM): 14.1%
viability, T/C (second compound 3.16 µM, first compound 0.00949 µM): 16.7%
viability, T/C (second compound 3.16 µM, first compound 0.03 µM): 19.9%
viability, T/C (second compound 3.16 µM, first compound 0.0949 µM): 12.2%
viability, T/C (second compound 3.16 µM, first compound 0.3 µM): 12.5%
viability, T/C (second compound 3.16 µM, first compound 0.949 µM): 11.6%
viability, T/C (second compound 3.16 µM, first compound 3 µM): 8.25%
viability, T/C (second compound 10 µM, first compound 0.00949 µM): 12.8%
viability, T/C (second compound 10 µM, first compound 0.03 µM): 11.4%
viability, T/C (second compound 10 µM, first compound 0.0949 µM): 12.7%
viability, T/C (second compound 10 µM, first compound 0.3 µM): 7.14%
viability, T/C (second compound 10 µM, first compound 0.949 µM): 8.9%
viability, T/C (second compound 10 µM, first compound 3 µM): 8.72%

Reference: PubChem BioAssay AID1963451 (Molecular Pharmacology Branch, DTP, NCI, 2024)
